This is an account of results in patent publication US12129237B2, “Substituted diaminocarboxamide and diaminocarbonitrile pyrimidines, compositions thereof, and methods of treatment therewith” (SIGNAL PHARMACEUTICALS, LLC, priority 2011, dated 2024).

For the test, the target named is T1, JNK1 (Homo sapiens, UniProt P45983).
T1 construct: purchased Carna Biosciences
Kind of test: JNK1 biochemical assays (one or more of: time resolved fluorescence, Z'-LYTE Cascade, radioactive).

Where [1] appears, read: one or more of the JNK1 biochemical assays, read-out: Act. Level (JNK1 IC50 activity level).
Where [2] appears, read: tested in one or more of the JNK1 biochemical assays, read-out: Act. Level (JNK1 biochemical assay IC50 activity level).
Setting [3] is: Table 2, JNK1 IC50 activity level, read-out: Act. Level.
[4] abbreviates: Table 3, JNK1 IC50 activity level, read-out: Act. Level.

Where two headings read alike, the source gives them in different places. A value given as a limit tells only on which side of the number the result lay.

T1 sequence (P45983 whole entry): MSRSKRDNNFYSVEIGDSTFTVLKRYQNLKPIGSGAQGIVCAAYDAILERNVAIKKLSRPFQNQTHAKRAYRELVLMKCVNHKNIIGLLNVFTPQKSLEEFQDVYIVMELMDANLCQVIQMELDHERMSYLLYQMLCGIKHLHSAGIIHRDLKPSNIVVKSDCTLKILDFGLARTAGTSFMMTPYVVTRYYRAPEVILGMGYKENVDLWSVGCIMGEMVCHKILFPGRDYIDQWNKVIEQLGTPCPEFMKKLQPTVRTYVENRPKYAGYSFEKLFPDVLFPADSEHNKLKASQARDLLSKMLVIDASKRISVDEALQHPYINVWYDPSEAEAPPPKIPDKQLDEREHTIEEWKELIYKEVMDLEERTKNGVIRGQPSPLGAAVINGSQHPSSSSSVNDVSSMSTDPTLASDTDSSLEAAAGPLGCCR

For `CC(C)(C)Nc1ncc(C(N)=O)c(N[C@@H]2CCC(C)(C)[C@H](O)C2)n1` [Example 324, 2-(tert-butylamino)-4-((1R,3R)-3-hydroxy-4,4-dimethylcyclohexylamino)pyrimidine-5-carboxamide], the IC50 under setting [1] is below 200 nM.

Consider `NC(=O)c1cnc(N[C@H]2CC[C@H](OCC(F)(F)F)CC2)nc1N[C@@H]1CCC[C@H]1CO` [Example 331, 4-((1R,2R)-2-(hydroxymethyl)cyclopentylamino)-2-((1r,4R)-4-(2,2,2-trifluoroethoxy)cyclohexylamino)pyrimidine-5-carboxamide], for which the IC50 under setting [1] is below 200 nM.

As for `CO[C@H]1CC[C@H](Nc2ncc(C(N)=O)c(N[C@@H]3CCCNC3)n2)CC1` [Example A-47, 2-((1r,4R)-4-methoxycyclohexylamino)-4-((R)-piperidin-3-ylamino)pyrimidine-5-carboxamide], the IC50 under setting [2] was below 200 nM.

In the case of `COc1ccc(Nc2ncc(C(N)=O)c(Nc3ccccc3)n2)c(C)c1` [Example B-18, 2-(4-methoxy-2-methylphenylamino)-4-(phenylamino)pyrimidine-5-carboxamide], the IC50 under setting [3] is below 200 nM.

Regarding `CC1(Nc2nc(NC34CCC(O)(CC3)C4)ncc2C(N)=O)CCCC1` [Example 446, 2-(4-hydroxybicyclo[2.2.1]heptan-1-ylamino)-4-(1-methylcyclopentylamino)pyrimidine-5-carboxamide], under setting [1], the IC50 was below 200 nM.

With `NC(=O)c1cnc(N[C@H]2CC[C@H](OC3CC3)CC2)nc1NC12CC(C1)C2` [Example 368, 4-(bicyclo[1.1.1]pentan-1-ylamino)-2-((1r,4r)-4-cyclopropoxycyclohexylamino)pyrimidine-5-carboxamide], under setting [1], the IC50 is below 200 nM.

Regarding `NC(=O)c1cnc(N[C@@H]2CCCc3ccccc32)nc1N[C@@H]1CCC[C@H](O)C1` [Example B-74, 4-((1R,3S)-3-hydroxycyclohexylamino)-2-((R)-1,2,3,4-tetrahydronaphthalen-1-ylamino)pyrimidine-5-carboxamid], the IC50 under setting [3] is below 200 nM.

For the compound `C[C@@H]1CC[C@@H](Nc2nc(NC3CCCC3)ncc2C(N)=O)C[C@H]1O` [Example 364, 2-(cyclopentylamino)-4-((1R,3R,4R)-3-hydroxy-4-methylcyclohexylamino)pyrimidine-5-carboxamide], the IC50 under setting [1] is below 200 nM.

Turning to `CO[C@H]1CC[C@H](Nc2ncc(C(N)=O)c(N[C@@H]3CCC[C@H]3O)n2)CC1` [Example A-65, 4-((1R,2R)-2-hydroxycyclopentylamino)-2-((1r,4R)-4-methoxycyclohexylamino)pyrimidine-5-carboxamide], the IC50 under setting [2] was below 200 nM.

In the case of `CCO[C@H]1CC[C@H](Nc2ncc(C#N)c(N[C@H]3CCCOC3)n2)CC1` [Example C-24, 2-((1r,4S)-4-ethoxycyclohexylamino)-4-((S)-tetrahydro-2H-pyran-3-ylamino)pyrimidine-5-carbonitrile], under setting [4], the IC50 is 1000 to 10000 nM.

Consider `CCO[C@H]1CC[C@H](Nc2ncc(C(N)=O)c(NC34CC(C3)C4)n2)CC1` [Example 344, 4-(bicyclo[1.1.1]pentan-1-ylamino)-2-((1r,4r)-4-ethoxycyclohexylamino)pyrimidine-5-carboxamide], for which, under setting [1], the IC50 is below 200 nM.

For `CO[C@H]1CC[C@H](Nc2ncc(C(N)=O)c(N[C@H]3CC[C@@H](O)CC3)n2)CC1` [Example A-101, 4-((1s,4s)-4-hydroxycyclohexylamino)-2-((1r,4r)-4-methoxycyclohexylamino)pyrimidine-5-carboxamide], under setting [2], the IC50 is below 200 nM.

For the compound `CN[C@H]1CC[C@H](Nc2ncc(C(N)=O)c(N[C@@H]3CCC[C@H](O)C3)n2)CC1` [Example A-49, 4-((1R,3S)-3-hydroxycyclohexylamino)-2-((1r,4R)-4-(methylamino)cyclohexylamino)pyrimidine-5-carboxamide], the IC50 under setting [2] is below 200 nM.

Consider `CC(C)Nc1nc(N[C@H]2CC[C@H](C(C)(C)O)CC2)ncc1C(N)=O` [Example A-6, 2-((1r,4r)-4-(2-hydroxypropan-2-yl)cyclohexylamino)-4-(isopropylamino)pyrimidine-5-carboxamide], for which, under setting [2], the IC50 is below 200 nM.

On to `COc1ccc(-c2ccccc2)cc1Nc1ncc(C(N)=O)c(Nc2ccccc2)n1` [Example B-29, 2-(4-methoxybiphenyl-3-ylamino)-4-(phenylamino)pyrimidine-5-carboxamide], for which the IC50 under setting [3] fell in the range of 1000 to 10000 nM.

For the compound `CCC(Nc1ncc(C(N)=O)c(Nc2ccccc2)n1)c1ccccc1` (stereo not shown) [Example B-56, 4-(phenylamino)-2-(1-phenylpropylamino)pyrimidine-5-carboxamide], the IC50 under setting [3] fell in the range of 200 to 800 nM.

Regarding `CN(C)C(=O)[C@H]1CC[C@H](Nc2ncc(C(N)=O)c(NC(C)(C)C)n2)CC1` [Example 308, 4-(tert-butylamino)-2-((1r,4r)-4-(dimethylcarbamoyl)cyclohexylamino)pyrimidine-5-carboxamide], the IC50 under setting [1] was below 200 nM.

With `C[C@@H]1CC[C@@H](Nc2nc(NC3(C4CC4)CC3)ncc2C(N)=O)C[C@H]1O` [Example 474, 2-(bi(cycloprop)ylamino)-4-((1R,3R,4R)-3-hydroxy-4-methylcyclohexylamino)pyrimidine-5-carboxamide], the IC50 under setting [1] is below 200 nM.

Take `CN(C)CCNc1ncc(C(N)=O)c(Nc2ccccc2)n1` [Example B-61, 2-(2-(dimethylamino)ethylamino)-4-(phenylamino)pyrimidine-5-carboxamide]: the IC50 under setting [3] was in the range of 1000 to 10000 nM.

For the compound `CO[C@H]1CC[C@H](Nc2ncc(C(N)=O)c(N[C@H]3CCCC[C@@](C)(O)C3)n2)CC1` [Example A-185, 4-((1S,3R)-3-hydroxy-3-methylcycloheptylamino)-2-((1r,4S)-4-methoxycyclohexylamino)pyrimidine-5-carboxamide], the IC50 under setting [2] is below 200 nM.

For the compound `CC(C)[C@H](C)Nc1ncc(C(N)=O)c(N[C@@H]2CC[C@@H](C)[C@H](O)C2)n1` [Example 471, 4-((1R,3R,4R)-3-hydroxy-4-methylcyclohexylamino)-2-((S)-3-methylbutan-2-ylamino)pyrimidine-5-carboxamide], the IC50 under setting [1] is below 200 nM.

Regarding `CC(C)(C)Nc1ncc(C(N)=O)c(N[C@H]2CCC(C)(C)[C@@H](O)C2)n1` [Example 323, 2-(tert-butylamino)-4-((1S,3S)-3-hydroxy-4,4-dimethylcyclohexylamino)pyrimidine-5-carboxamide], the IC50 under setting [1] fell in the range of 200 to 800 nM.

For the compound `CN[C@H]1CC[C@H](Nc2ncc(C#N)c(N[C@@H]3CCC[C@H](O)C3)n2)CC1` [Example C-11, 4-((1R,3S)-3-hydroxycyclohexylamino)-2-((1r,4R)-4-(methylamino)cyclohexylamino) pyrimidine-5-carbonitrile], the IC50 under setting [4] is below 200 nM.

Regarding `C[C@@H](Nc1nc(N[C@H]2CC[C@H](OCC(F)(F)F)CC2)ncc1C(N)=O)C1CC1` [Example 409, 4-((R)-1-cyclopropylethylamino)-2-((1r,4R)-4-(2,2,2-trifluoroethoxy)cyclohexylamino)pyrimidine-5-carboxamide], the IC50 under setting [1] was below 200 nM.

Regarding `NC(=O)c1cnc(N[C@H]2CCc3ccccc3C2)nc1N[C@@H]1CCC[C@H](O)C1` [Example B-85, 4-((1R,3)S-3-hydroxycyclohexylamino)-2-((S)-1,2,3,4-tetrahydronaphthalen-2-ylamino)pyrimidine-5-carboxamide], the IC50 under setting [3] was 800 to 1000 nM.

`C[C@]1(O)CCC[C@@H](Nc2nc(N[C@H]3CC[C@H](OCC(F)(F)F)CC3)ncc2C(N)=O)C1` [Example A-168, 4-((1R,3S)-3-hydroxy-3-methylcyclohexylamino)-2-((1r,4R)-4-(2,2,2-trifluoroethoxy)cyclohexylamino)pyrimidine-5-carboxamid]: the IC50 under setting [2] is below 200 nM.

For `COC[C@H]1CC[C@H](Nc2ncc(C(N)=O)c(N[C@H]3CCN(C(C)=O)C3)n2)CC1` [Example A-85, 4-((S)-1-acetylpyrrolidin-3-ylamino)-2-((1r,4S)-4-(methoxymethyl)cyclohexylamino)pyrimidine-5-carboxamide], the IC50 under setting [2] fell in the range of 200 to 800 nM.

As to `CC1(Nc2nc(NC34CCC(O)(CC3)CC4)ncc2C(N)=O)CCC1` [Example 412, 2-(4-hydroxybicyclo[2.2.2]octan-1-ylamino)-4-(1-methylcyclobutylamino)pyrimidine-5-carboxamide], the IC50 under setting [1] is below 200 nM.

`CCC(C)(C)Nc1ncc(C(N)=O)c(N[C@@H]2CCC[C@](C)(O)C2)n1` [Example 350, 4-((1R,3S)-3-hydroxy-3-methylcyclohexylamino)-2-(tert-pentylamino)pyrimidine-5-carboxamide]: the IC50 under setting [1] was below 200 nM.

On to `C[C@]1(O)CCC[C@@H](Nc2nc(N[C@H]3CC[C@H](O)CC3)ncc2C(N)=O)C1` [Example A-177, 4-((1R,3S)-3-hydroxy-3-methylcyclohexylamino)-2-((1r,4R)-4-hydroxycyclohexylamino)pyrimidine-5-carboxamide], for which, under setting [2], the IC50 was below 200 nM.

`CC(C)Nc1nc(N[C@H]2CCc3ncccc3C2)ncc1C(N)=O` [Example B-80, (S)-4-(isopropylamino)-2-(5,6,7,8-tetrahydroquinolin-6-ylamino)pyrimidine-5-carboxamide]: the IC50 under setting [3] is below 200 nM.

`NC(=O)c1cnc(N[C@H]2CC[C@H](N3CCCC3)CC2)nc1N[C@@H]1CCC[C@H](O)C1` [Example A-153, 4-((1R,3S)-3-hydroxycyclohexylamino)-2-((1r,4R)-4-(pyrrolidin-1-yl)cyclohexylamino)pyrimidine-5-carboxamide]: the IC50 under setting [2] was below 200 nM.

For the compound `C[C@]1(O)CCC[C@@H](Nc2nc(NC3CCOCC3)ncc2C(N)=O)C1` [Example A-169, 4-((1R,3S)-3-hydroxy-3-methylcyclohexylamino)-2-(tetrahydro-2H-pyran-4-ylamino)pyrimidine-5-carboxamide], the IC50 under setting [2] was below 200 nM.

Consider `C[C@@H]1CC[C@@H](Nc2nc(NC3CC3)ncc2C(N)=O)C[C@H]1O` [Example 272, 2-(cyclopropylamino)-4-((1R,3R,4R)-3-hydroxy-4-methylcyclohexylamino)pyrimidine-5-carboxamide], for which the IC50 under setting [1] is below 200 nM.
